The source of these data is US9365541B2, “Compounds for use in the treatment of parasitic diseases” (IRBM—SCIENCE PARK S.P.A., priority 2012, dated 2016).

By EC50 is commonly meant the concentration needed to bring the measured effect to its halfway point. As usually defined, the IC50 is the concentration at which inhibition is half-maximal.

Experiment [1] concerns histone 4 acetylated lysine 8 (H4K8Ac). Kind of experiment: Histone hyperacetylation assay (Western blot H4K8Ac) in P. falciparum 3D7 infected erythrocytes. It counts as cell-based. Particulars: Plasmodium falciparum, Erythrocyte, 20 nM to 10 uM, 14-16 hours, read-out: estimated EC50 in the hyperacetylation assay. The protocol: FIG. 1. Hyperacetylation of P. falciparum histones. Plasmodium falciparum 3D7 infected erythrocytes (5-7% parasitemia) were cultured for 14-16 hours in vitro with increasing concentrations (6 nM to 3 uM) of (A): compound (S)-N-(7-(methylamino)-1-(5-(naphthalen-2-yl)-1H-imidazol-2-yl)-7-oxoheptyl)quinuclidine-4-carboxamide (Table 2, entry 126) or with vehicle (0.01% DMSO); increasing concentrations (20 nM to 10 uM) of (B): compound (S)-N-(1-(5-(4-(1H-pyrazol-5-yl)phenyl)-1H-imidazol-2-yl)-7-(methylamino)-7-oxoheptyl)thiazole-5-carboxamide (Table 2, entry 221; Example 4, D9). Beta-actin was used as loading control (see materials and methods). H4K8Ac: antibody directed against acetylated lysine 8 of histone 4. […]
The effect of test compounds on histone acetylation status was determined by incubating Plasmodium falciparum 3D7 infected erythrocytes or HeLa cells with different concentrations of drugs or vehicle (0.01% DMSO) alone. […] Supernatants were analyzed by 12% SDS-PAGE and transferred onto PVDF (Immun-Blot PVDF Membrane for Protein Blotting, BIORAD, Cat: No 162-0177) membranes. […]

For experiment [2] the test system is unchanged. Kind of experiment: Histone hyperacetylation assay (Western blot H4K8Ac) in HeLa cells. It counts as cell-based, human. The conditions noted are these: data not shown. As to the method:
FIG. 2. Hyperacetylation of HeLa's histones. HeLa cells were incubated in vitro for 14-16 hours with increasing concentrations (49 nM to 25 uM) of compound (S)-N-(7-(methylamino)-1-(5-(naphthalen-2-yl)-1H-imidazol-2-yl)-7-oxoheptyl)quinuclidine-4-carboxamide (Table 2, entry 126) or were treated with vehicle (0.01% DMSO). Beta-actin was used as loading control (see materials and methods). H4K8Ac: antibody directed against acetylated lysine 8 of histone 4.
After result normalization using positive and negative controls, compound potency is determined by fitting the following equation: % inh=Ymin+(Ymax−Ymin)/(1+(X/EC50)^slope)) Where: • Ymin=minimum percentage effect • Ymax=maximum percentage effect • EC50=the concentration of the compound at which 50% effect is reached • Slope=the slope of the curve calculated at the EC50 Histone Hyperacetylation and Immunodetection of Altered Histone Modifications Assay
The effect of test compounds on histone acetylation status was determined by incubating Plasmodium falciparum 3D7 infected erythrocytes or HeLa cells with different concentrations of drugs or vehicle (0.01% DMSO) alone. Infected erythrocytes were collected at 14-16 hours post treatment and lysed in saponin (0.15%). […] Supernatants were analyzed by 12% SDS-PAGE and transferred onto PVDF (Immun-Blot PVDF Membrane for Protein Blotting, BIORAD, Cat: No 162-0177) membranes. […]
(Immunoblotting shows a protein as a band on a membrane.)

The target of experiment [3] is T1, human HDAC1 (Homo sapiens, UniProt Q13547).
T1 construct: made in house; host or cells: HeLa (ATCC CCL-2), mammalian cells
Kind of experiment: Homo sapiens HDAC1 inhibition assay (Fluor-de-Lys, enzymatic). Particulars: human HDAC enzymatic assay; read-out: hHDAC IC50. It counts as biochemical. The gist of the method: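 Fluorogenic deacetylation read-out: trypsin developer, supplemented with 2 μM final TSA as stop, releases fluorophore from deacetylated substrate.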

The subject of experiment [4] is HDAC1 (deacetylase activity inside HeLa cells). Kind of experiment: Cell based HDAC1 inhibition (HDAC HeLa Cell based assay). Details: species or system human. As to the method:
After result normalization using positive and negative controls, compound potency is determined by fitting the following equation: % inh=Ymin+(Ymax−Ymin)/(1+(X/IC50)^slope)) Where: • Ymin=minimum percentage inhibition • Ymax=maximum percentage inhibition • IC50=the concentration of the compound at which 50% inhibition is reached • Slope=the slope of the curve calculated at the IC50 Cell Based HDAC1 Inhibition Overview:
The aim of the assay is to evaluate the inhibition of the deacetylase activity inside the cells. To such goal a membrane permeable substrate is added to HeLa cells. After the incubation period, cells are lysed and the deacetylated substrate is evaluated using the same principles previously described for the human HDAC1 assay.
HeLa cells (HeLa, cervix adnocarcinoma, ATCC® Number: CCL-2™) frozen stock are derived from cell cultured in DMEM, glutamine, penicilline, streptomicine and 10% fetal bovine serum (FBS). Stock are frozen in 90% FBD and 10% DMSO.
b) HDAC Substrate Buffer System
Reagents of the HDAC Fluorescent Activity Assay are purchased from Enzo Life Sciences (http://www.enzolifesciences.com/BML-AK500/fluor-de-lys-hdac-fluorometric-activity-assay-kit/) and feature the Fluor-de-Lys™ Substrate/Developer System. The reagents include the proprietary fluorescent substrate as a 50 mM stock solution (KI-104), and the Developer Concentrate (KI-105). Deacetylation of the lysine residue of the Fluor-de-Lys substrate is quantified by measuring the fluorescence (ex 360 nm, em 460 nm) after addition of the proprietary developer.
TSA is provided as a 10 mM stock solution in 100% dimethylsulfoxide (DMSO).
Test compounds should be prepared in 100% DMSO and transferred to the assay by a nano volume dispenser to reach the appropriate concentration and the appropriate DMSO concentration (0.25%) in the reaction.
GIBCO Dulbecco's Mod Eagle Medium without Phenol Red (cat n° 11880) Completed with 10% FCS—fetal bovine serum—, 1% Penicillin-Streptomycin (10 mg/ml) and 1% L-Glutamine 200 mM (100×)
f) Diluted Substrate Solution
The commercial 50 mM Fluor-de-Lys substrate (KI-104) is diluted to 400 uM in Assay Buffer prior to each use.
g) Diluted Stop-Lysis-Developer Solution
The reaction is performed in 384-well microplate in a final volume of 20 μl/well+10 μl/well of Stop-Lysis-Developer Mix, as following: • seed 10000 HeLa cells/well, from the frozen aliquots, in 15 μl in assay medium and let recover overnight; • transfer compounds to the assay by nano-volume transfer machine in order to reach the desired assay concentration and a final DMSO concentration of 0.25%; • pre-incubate compounds on cells for 30 min; • start the reaction by adding 5 μl of the Diluted Substrate Solution; • stop the reaction after 4 h incubation at 37° C. 5% CO2 by adding 10 μl of Diluted Stop-Lysis-Developer Solution; • incubate 20 min at 37° C.; • after 10 min at RT measure the fluorescence at excitation 360 nm and emission 460 nm
Negative controls (0% Effect) are produced by addition of DMSO to the proper wells.
Positive controls (100% Effect) are produced by addition of 4 μM TSA to the proper wells.
After result normalization using positive and negative controls, compound potency is determined by fitting the following equation: % inh=Ymin+(Ymax−Ymin)/(1+(X/EC50)^slope)) Where: • Ymin=minimum percentage effect • Ymax=maximum percentage effect • EC50=the concentration of the compound at which 50% effect is reached • Slope=the slope of the curve calculated at the EC50 In Vitro Culture of P. falciparum Parasites

The subject of experiment [5] is Plasmodium falciparum 3D7. Kind of experiment: P. falciparum growth inhibition assay (Pf-LDH). The conditions noted are these: for Selectivity Index: HDAC HeLa Cell Based IC50 (μM)/Pf-LDH EC50 (μM); for EC50: Plasmodium falciparum, Erythrocyte, P. falciparum 3D7 infected erythrocytes, 72 h incubation, PfLDH readout. It counts as cell-based. The gist of the method:
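Compounds were tested against 72 h cultures of the 3D7 strain (0.25% parasitemia, 2% hematocrit, 37° C, low-oxygen gas). Parasite growth was quantified as lactate dehydrogenase activity via NBT reduction, absorbance 650 nm, after freezing and thawing.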

Structures are written as SMILES.

T1 sequence (Q13547 whole entry): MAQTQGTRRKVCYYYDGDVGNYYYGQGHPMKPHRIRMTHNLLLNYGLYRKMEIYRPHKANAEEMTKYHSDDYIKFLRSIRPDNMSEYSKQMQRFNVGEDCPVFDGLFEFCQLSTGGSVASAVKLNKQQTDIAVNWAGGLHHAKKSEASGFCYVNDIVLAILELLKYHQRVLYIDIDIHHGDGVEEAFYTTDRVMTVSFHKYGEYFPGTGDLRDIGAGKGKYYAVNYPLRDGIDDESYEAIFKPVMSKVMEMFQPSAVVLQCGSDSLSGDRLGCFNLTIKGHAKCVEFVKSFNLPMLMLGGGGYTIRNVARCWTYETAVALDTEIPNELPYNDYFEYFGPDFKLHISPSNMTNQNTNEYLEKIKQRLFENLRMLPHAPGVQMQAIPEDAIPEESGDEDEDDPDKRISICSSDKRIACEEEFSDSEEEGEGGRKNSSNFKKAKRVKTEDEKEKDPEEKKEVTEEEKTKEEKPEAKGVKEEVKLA

Consider `CNC(=O)CCCCC[C@H](NC(=O)c1cncs1)c1ncc(-c2ccc(-c3ccn[nH]3)cc2)[nH]1` [D9, (S)-N-(1-(5-(4-(1H-pyrazol-5-yl)phenyl)-1H-imidazol-2-yl)-7-(methylamino)-7-oxoheptyl)thiazole-5-carboxamide], for which the concentration for a half-maximal effect (EC50) in experiment [1] is 0.35 µM. In experiment [2], the “concentration up to which no change in histone acetylation was observed in HeLa cells” value was more than 10 µM.
As to `CNC(=O)CCCCC[C@H](NC(=O)c1cnn(C(C)C)c1)c1ncc(-c2ccc3cc(OC)ncc3c2)[nH]1` [compound 227, (S)-1-isopropyl-N-(1-(5-(3-methoxyisoquinolin-7-yl)-1H-imidazol-2-yl)-7-(methylamino)-7-oxoheptyl)-1H-pyrazole-4-carboxamide], the IC50 was less than 1 µM in experiment [3] and 1 to 5 µM in experiment [4]. The “Selectivity Index” value in experiment [5] is recorded as 23.5. The concentration giving a half-maximal response (EC50) in experiment [5] was less than 1 µM.
As to `CNC(=O)CCCCC[C@H](NC(=O)c1cncs1)c1ncc(-c2ccc(-c3cnn(C)c3)cc2)[nH]1` [compound 228, (S)-N-(1-(5-(4-(1-methyl-1H-pyrazol-4-yl)phenyl)-1H-imidazol-2-yl)-7-(methylamino)-7-oxoheptyl)thiazole-5-carboxamide], in experiment [3], the half-maximal inhibitory concentration (IC50) was more than 5 µM. In addition, in experiment [4], the IC50 is more than 5 µM. In experiment [5], the “Selectivity Index” value is 6.7 and the EC50 was in the range of 1 to 5 µM.
Take `CNC(=O)CCCCC[C@H](NC(=O)c1cncs1)c1ncc(-c2ccc(-c3ccnn3C)cc2)[nH]1` [compound 229, (S)-N-(1-(5-(4-(1-methyl-1H-pyrazol-5-yl)phenyl)-1H-imidazol-2-yl)-7-(methylamino)-7-oxoheptyl)thiazole-5-carboxamide]: in experiment [3], the IC50 was more than 5 µM. Further, the IC50 in experiment [4] is more than 5 µM. In addition, in experiment [5], the “Selectivity Index” value is listed as 5.6 and the EC50 was in the range of 1 to 5 µM.
As to `CNC(=O)CCCCC[C@H](NC(=O)c1cncs1)c1ncc(-c2ccc(-c3cncs3)cc2)[nH]1` [compound 230, (S)-N-(7-(methylamino)-7-oxo-1-(5-(4-(thiazol-5-yl)phenyl)-1H-imidazol-2-yl)heptyl)thiazole-5-carboxamide], the IC50 in experiment [3] lay in the range of 1 to 5 µM. The same molecule yielded an IC50 in experiment [4] of more than 5 µM. Moreover, in experiment [5], the “Selectivity Index” value turned out to be 3.6 and the concentration giving a half-maximal response (EC50) was 1 to 5 µM.
In the case of `CNC(=O)CCCCC[C@H](NC(=O)c1cncs1)c1ncc(-c2ccc(-c3nccs3)cc2)[nH]1` [compound 231, (S)-N-(7-(methylamino)-7-oxo-1-(5-(4-(thiazol-2-yl)phenyl)-1H-imidazol-2-yl)heptyl)thiazole-5-carboxamide], the IC50 in experiment [3] lay in the range of 1 to 5 µM. The half-maximal inhibitory concentration (IC50) in experiment [4] is more than 5 µM. In addition, in experiment [5], the “Selectivity Index” value stood at 10.6 and the half-maximal effective concentration (EC50) was less than 1 µM.
The matching figures for `CNC(=O)CCCCC[C@H](NC(=O)c1cncs1)c1ncc(-c2ccc(-c3cscn3)cc2)[nH]1` [compound 232, (S)-N-(7-(methylamino)-7-oxo-1-(5-(4-(thiazol-4-yl)phenyl)-1H-imidazol-2-yl)heptyl)thiazole-5-carboxamide]: 1 to 5 µM, more than 5 µM, 14.2 and less than 1 µM.
